Source: patent US20170315126A1, “METHOD FOR SCREENING COMPOUND SPECIFICALLY SUPPRESSING FORMATION OF CAVEOLAE OF CANCER CELLS, SCREENING KIT, VECTOR AND TRANSFORMANT TO BE USED IN KIT, AND METHOD FOR SELECTING PATIENT FOR WHOM MOLECULARLY TARGETED DRUG IS INDICATED” (NATIONAL UNIVERSITY CORPORATION NAGOYA INSTITUTE OF …, priority 2014, published 2017)

What was measured:
Type in all cases: cell-based, human
[1] = test system: CAV1; experiment: Western blotting of CAV1 expression after siRNA transfection in pulmonary adenocarcinoma cell lines
Experimental: (§1) Western blotting analysis and IP-WB analysis were conducted by the standard methods using an Immobilon-P filter (manufactured by Millipore Corp.) and an enhanced chemiluminescence system (manufactured by GE Healthcare Inc.). pCMVpuro-Cavin-1-WT was coexpressed with various ROR1 expression constructs such as the wild type (WT), TKΔ473-564 (TKΔ1), TK564-655 (TKΔ2), TKΔ655-746 (TKΔ3), TKΔ473-655 (TKΔ1+×2), TKΔ564-746 (TKΔ2+Δ3), and TKΔ473-746 (TKA1+Δ2+A3) to identify the binding site of ROR1 and Cavin-1. pCMVpuro-CAV1-WT was coexpressed with ROR1 expression constructs such as the wild type (WT), TKΔ473-564 (TKΔ1), TKΔ564-655 (TKΔ2), TKΔ655-746 (TKΔ3), ST1Δ748-782 (ΔST1), PΔ784-851 (ΔP), and ST2Δ853 to 876 (ΔST2) to identify the binding site of ROR1 and CAV1. For these, the cells were recovered 24 hours after transfection by Fugene6 (Promega) using COS-7 cells, and IP-WB analysis was conducted.
(§2) Transfection of the siRNA (20 nM each) was conducted in accordance with the manufacturer's instruction manual using lipofectamine RNAiMAX (manufactured by Invitrogen). […] Cells were also recovered 120 hours after transfection for analysis by colorimetry to measure cell proliferation.

[2] = test system: caveolae of NCI-H1975 cells; experiment: Electron microscope analysis of caveolae by rapid freezing/freeze-fracture replica labeling; conditions: 72 hours after transfection, n=18 regions
Experimental: 20 μm thick gold foil was placed in a culture dish, and NCI-H1975 cells, which are a pulmonary adenocarcinoma cell line, were cultured on top. Transfection of siControl or siROR1 was conducted. Rapid freezing was conducted using a high-pressure freezing machine (Leica Inc.) 72 hours after transfection. Freeze-fracture replicas were prepared using a BAF400 apparatus (Baltec Co.), and labeled by mouse anti-CAV2 antibody (BD Transduction Co.) after treatment by SDS. A second antibody reaction was then conducted using 10 nm gold colloid-conjugated goat anti-mouse IgG antibody (British Biocell International Co.), and the cells were examined by a JEM-1011 electron microscope. For caveolae distribution density measurement, randomly selected regions under the electron microscope (18 random cell membrane regions of 17-50 μm) were measured, and the cell membrane region of each electron micrograph was measured using ImageJ.

[3] = test system: CAV1; experiment: Western blotting of CAV1 after siROR1 treatment in cells expressing ROR1 wild type or mutants with silent mutation; conditions: three days
Experimental: In vitro mutagenesis was conducted using KOD-plus-DNA polymerase (Toyobo), and pCMVpuro-ROR1-WTm (siROR1) and pCMVpuro-ROR1-KDm (siROR1) including silent mutations for siROR1 were prepared. Following primer of not involving amino acid substitution was used for production.
Wild type ROR1 (ROR1-WT), wild type ROR1 with an added silent mutation for siROR1 (ROR1-WTm), or kinase activity-deficient ROR1 with a silent mutation for siROR1 added (ROR1-KDm) were transfected into NCI-H1975 cells. Selection by puromycin (1.5 μg/mL) was performed after 24 hours, and the single clones were collected, and stable clones that expressed the respective ROR1 (constitutive ROR1-expressing cell lines) were prepared. These stable clones were then treated by siControl or siROR1, and the cells were recovered after three days and Western blotting analysis was conducted.
In vitro mutagenesis was conducted using KOD-plus-DNA polymerase (Toyobo), and pCMVpuro-ROR1-WTm (siROR1) and pCMVpuro-ROR1-TKA2+TKA3m (siROR1) including silent mutations for siROR1 were prepared. Following primer of not involving amino acid substitution was used for production.
(§3) Wild type ROR1 (ROR1-WT), wild type ROR1 with an added silent mutation for siROR1 (ROR1-WTm), or cavin-1 binding region-deficient ROR1 with an added silent mutation for siROR1 (ROR1-TKA2+TKA3m) were transfected into PC-9 cells. Selection by puromycin (1.0 μg/mL) was performed after 24 hours, and the cells were recovered as bulk clones and reseeded in 6-well plates. The cells were then treated by siControl or siROR1, recovered after three days, and Western blotting analysis was conducted.
In vitro mutagenesis was conducted using KOD-plus-DNA polymerase (Toyobo), and pCMVpuro-ROR1-WTm (siROR1) and pCMVpuro-ROR1-AS/T2m (siROR1) including silent mutations for siROR1 were prepared. Following primer of not involving amino acid substitution was used for production.
as §3, with “CAV1” for “cavin-1”, “(ROR1-ΔS/T2m)” for “(ROR1-TKA2+TKA3m)”

[4] = test system: ROR1; experiment: Western blotting of changes over time in ROR1 expression after siROR1 transfection; conditions: NCI-H1975; 24 hours after transfection
Experimental: as §1, §2

[5] = test system: CAV1 and Cavin-1; experiment: IP-WB analysis of binding of endogenous CAV1 and Cavin-1 under ROR1 silencing; conditions: NCI-H1975 cell extract 24 hours after transfection
Experimental: as §1
In addition, IP-WB analysis was conducted after suspending the cells in lysis buffer containing octyl glucoside (10 mM Tris-HCl (pH 8.0), 0.15 M NaCl, 5 mM EDTA, 1% Triton X-100, 60 mM octyl glucoside) using NCI-H1975, NCI-H358, and SK-LU-1 cell lines, which are pulmonary adenocarcinoma cell lines, to confirm the binding of ROR1 and Cavin-1, ROR1 and CAV1, or Cavin-1 and IGF-IR.

## siROR1: RNA oligomer for RNAi against human ROR1, 5′-CAGCAAUGGAUGGAAUUUCAA-3′ (SEQ ID No: 13) (listed as RNA, further chemistry not given here)
[1]; NCI-H441, NCI-H358 and PC-9, siRNA 20 nM, 72 hours after transfection
  CAV1 expression (Western blot): downregulation of CAV1 was found
[1]; NCI-H1975, after 48 hours
  CAV1 expression (Western blot): downregulation of CAV1 was seen
[2]
  number of normal caveolae in random regions on the cell membrane: decreases significantly
[3]; NCI-H1975 stable clones expressing ROR1-KDm (kinase activity-deficient, silent mutation)
  CAV1 expression (Western blot): downregulation of CAV1 was not seen
[3]; NCI-H1975 stable clones expressing ROR1-WT
  CAV1 expression (Western blot): downregulation of CAV1
[3]; NCI-H1975 stable clones expressing ROR1-WTm (silent mutation against siROR1)
  CAV1 expression (Western blot): downregulation of CAV1 was not seen
[3]; PC-9 transfected with ROR1-AS/T2m (CAV1 binding region deleted, silent mutation)
  CAV1 expression (Western blot): expression of CAV1 was lowered
[3]; PC-9 transfected with ROR1-TKA2+TKA3m (cavin-1 binding region deleted, silent mutation)
  CAV1 expression (Western blot): expression of CAV1 was lowered
[4]
  ROR1 expression (Western blot): lowered the expression of ROR1
[5]
  binding of endogenous CAV1 and Cavin-1 (IP-WB): decreases the binding
